Holding throughout (type): cell-based
For test [1], the system named is Human umbilical vein endothelial cells. Description: VEGF/HGF-triggered vasculogenesis in 3-D fibrin gel, or growth in 2-D culture. The following applies: for growth of VEGF/HGF-stimulated endothelial cells: 2-D culture atop fibrin gels; for elongation, proliferation and neovessel formation: 3-D fibrin gel. An excerpt:
(§1) At sites of tissue damage, inflammation or neoplasia, fibrinogen is converted into a 3-D meshwork of fibrin fibrils that serve as a structural support for endothelial cells undergoing neovascularization (Chun et al. 2006. Cell, 125: 577-591; Hiraoka et al. 1998. Cell, 95: 365-377; Schafer and Werner. 2008. Nat. Rev. Mol. Cell Biol., 9: 628-638; Zhou et al. 2008. Genes Dev., 22: 1231-1243). This process can be recapitulated in vitro by embedding serum-supplemented human endothelial cells within a 3-D fibrin gel in the presence of the pro-angiogenic factors, VEGF and HGF. Human umbilical vein endothelial cells were isolated from umbilical cords by perfusion of the umbilical vein with type 3 collagenase (Worthington, Lakewood, N.J.) and cultured in Medium-199 (Invitrogen, Carlsbad, Calif.) with 20% human serum and 50 μg/ml endothelial cell growth supplement (ECGS; BD Biosciences, Franklin Lakes, N.J.). For 3-D culture, endothelial cells were suspended in a solution of thrombin and aprotinin (Sigma, St. Louis, Mo.) and mixed 1:1 with a solution of 6 mg/ml fibrinogen (Calbiochem, Gibbstown, N.J.). Vasculogenesis was triggered by treatment with 100 ng/ml VEGF, 50 ng/ml HGF (Genentech, San Francisco, Calif.). Fibronectin fibrillogenesis was tracked in 3-D by co-culture with human fibronectin (Sigma) labeled with Alexa-594 (Invitrogen).
In the presence of VEGF and HGF, endothelial cells i) underwent marked changes in cell morphology from spherical to elongated, ii) mobilized proteinases which degrade the surrounding fibrin, iii) assembled a pericellular meshwork of fibronectin fibrils, and iv) initiated proliferative and tubulogenic responses that result in the formation of an anastomosing network of neovessels over a 6 day culture period (Hiraoka, supra; Saunders et al., 2006. J Cell Biol. 175: 179-191; Zhou et al., 2008. Proc. Natl. Acad. Sci. USA, 97: 4052-4057). […] Cell, 125: 757-767; Saunders et al., supra; Tomasini-Johansson et al., 2001. J. Biol. Chem., 276: 23430-23439; Zhou et al, supra). Endothelial cells cultured atop—rather than embedded within—fibrin gels (herein referred to as 2-D culture) display distinct growth requirements from those observed in 3-D culture.
Taken together, cytoskeletal reorganization and contractile tension may serve as the biomechanical effectors that transmit structural and mechanical cues from the pericellular ECM to the nuclear envelope. VEGF/HGF-stimulated endothelial cells were treated with either (a) blebbistatin to inhibit myosin ATPase function, or (b) nocodazole to prevent microtubule assembly under 3-D culture conditions (Salpingidou et al., 2007. J. Cell Biol., 178: 897-904; Zhou et al., supra).

Test [2] shares this test system. Description: Nuclear architecture (GFP-lamin A, emerin) and nuclear pore complex (NUP153) distribution. The following applies: for nuclear architecture: 2-D conditions; for nuclear shape / redistribution of nuclear pore complexes: 3-D fibrin gel.
Text: as §1
As the 3-D-specific requirements for MT-MMPs and fibronectin matrix assembly correlate with changes in endothelial cell morphology, efforts were initiated to identify mechanistic routes whereby cell shape changes impact cell function. In particular, the impact of ECM remodeling on nuclear architecture was investigated. Nuclear architecture was tracked by either transfecting cells with a GFP-tagged form of the nuclear matrix filament, lamin A, or by immunostaining for the integral nuclear membrane protein, emerin (Dahl et al., 2008. Circ. Res., 102: 1307-1318; Glynn and Glover, 2005. Hum. Mol. Genet., 14: 2959-2969; Starr, 2009. J. Cell Sci., 122: 577-586; Stewart et al., 2007. Science, 318: 1408-1412). Under 2-D conditions, endothelial cell nuclei assumed an ellipsoid shape when cultured atop fibrin gels in the absence or presence of VEGF/HGF. In marked contrast, under 3-D conditions, endothelial cells cultured within fibrin gels in the absence of VEGF/HGF unexpectedly display a distorted morphology with multiple lamin A matrix and emerin infoldings and surface irregularities. Upon addition of VEGF/HGF, however, the nuclei of fibrin-embedded endothelial cells undergo a dramatic, and 3-D-specific, remodeling to assume a more classic, ovoid morphology. Three-dimensional reconstructions of DAPI-stained nuclei confirm that nuclear architecture transitions between multi-lobed and smooth elliptical shapes in the absence or presence, respectively, of VEGF/HGF.
Nuclear matrix architecture controls the distribution of the nuclear pore complexes that regulate the trafficking of protein and RNA across the nuclear envelope (Goldman et al., 2004. Proc. Natl. Acad. Sci. USA, 101: 8963-8968; Hawryluk-Gara et al., 2005. Mol. Biol. Cell, 16: 2382-2394; Liu et al., 2007. J. Cell. Biol., 178: 785-798). As such, the localization of nuclear pores was assessed in intact cells by monitoring the localization of the component protein, NUP153. In 3-D culture, unstimulated endothelial cells accumulate NUP153-containing pore complexes at nuclear membrane invaginations. In contrast, the nuclei of VEGF/HGF-stimulated endothelial cells display a uniform distribution of pore complexes in nuclear membranes.
To determine the roles of MMP-dependent proteolysis and fibronectin matrix assembly in mediating nuclear shape and nuclear pore complex changes, fibrin-embedded endothelial cells were stimulated with VEGF/HGF in the presence of FUD or GM6001. […]

Test [3] shares this test system. Description: Nucleoli and nuclear speckle morphology (fibrillarin, SC-35 immunostaining). The following applies: for fibrillarin or SC-35 distribution: 2-D culture conditions; for patterns of fibrillarin and SC-35 staining: 3-D culture, VEGF/HGF-stimulated.
Text: as §1
The morphology of nucleoli and nuclear speckles—which serve, respectively, as ribosomal RNA and pre-mRNA processing sites—was assessed by immunostaining for fibrillarin (a pre-rRNA processing protein) or SC-35 (a pre-mRNA splicing protein) (Tang et al., supra). […] Likewise, nuclear speckle morphology changed from a small number of large foci to more numerous, smaller foci.

Test [4] shares this test system. Description: RNA synthesis (transcriptional activity) in cultured endothelial cells. The settings on record: for transcriptional activity: 2-D culture conditions; for VEGF/HGF induction of transcriptional activity (RNA synthesis) / mRNA and rRNA synthesis inhibited: 3-D culture; for mRNA and rRNA synthesis inhibited: low dose actinomysin D used to separate rRNA synthesis, data not shown.
Text: as §1
VEGF/HGF-induced chromatin dispersion, histone acetylation, and nuclear speckle decompaction observed in 3-D culture are consistent with global activation of transcription (Lamond and Spector, 2003. Nat. Rev. Mil. Cell Biol., 4: 605-612; Tang et al., supra). As such, RNA synthesis was quantified in cultured endothelial cells. […] Under 2-D culture conditions, transcriptional activity proceeded independently of pericellular ECM remodeling and was unaffected by FUD or GM6001.

The mark [5] stands for this setting: 3-D culture, VEGF/HGF-stimulated, blebbistatin or nocodazole.

Regarding `CNC(=O)[C@H](Cc1c[nH]c2ccccc12)NC(=O)[C@@H](CC(=O)NO)CC(C)C` [GM6001], in test [1], the “growth of VEGF/HGF-stimulated endothelial cells” value is “neither GM6001 nor FUD affect the growth”. In addition, the “elongation, proliferation and neovessel formation” value in test [1] (VEGF/HGF-stimulated) is listed as “failed to elongate, proliferate or form neovessels”. The nuclear architecture result in test [2] is on record as “unaffected”. Moreover, the “TUNEL staining with formation of multi-lobed nuclei” value in test [2] (3-D culture) is listed as “does not correlate with increased TUNEL staining”. Also, in test [2] (VEGF/HGF-stimulated), the nuclear shape result is on record as “locked endothelial cell nuclei into the multi-lobular conformation” and the “redistribution of nuclear pore complexes” value is listed as “completely failed to redistribute”. In addition, in test [3], the “fibrillarin or SC-35 distribution” value is reported as “did not affect”; the “patterns of fibrillarin and SC-35 staining” value is reported as “reversed to that resembling unstimulated endothelial cells”. Besides, in test [4], the transcriptional activity entry is listed as “unaffected”; the “VEGF/HGF induction of transcriptional activity (RNA synthesis)” value was “attenuated significantly”; the “mRNA and rRNA synthesis inhibited” value is recorded as ~50%.
Turning to `Cc1ccc2c(c1)C(=O)C1(O)CCN(c3ccccc3)C1=N2` (stereo not drawn) [blebbistatin], the “endothelial cell 3-D tubulogenesis” value in test [1] (setting [5]) is recorded as “completely inhibit”. In test [2] (setting [5]), the “nuclear shape and nuclear pore distribution” value is on record as “multi-lobed nuclei with perturbations in nuclear pore distribution”.
Consider “FUD: 49-residue functional upstream domain of Streptococcus pyogenes F1 adhesion protein, SEQ ID NO: 10; fibronectin fibril assembly inhibitor (KDQSPLAGESGETEYITEVYGNQQNPVDIDKKLPNETGFSGNMVETEDT; Streptococcus pyogenes; Functional Upstream Domain (FUD) of F1 adhesion protein)”, for which the “growth of VEGF/HGF-stimulated endothelial cells” value in test [1] is listed as “neither GM6001 nor FUD affect the growth”. In test [1] (VEGF/HGF-stimulated), the “elongation, proliferation and neovessel formation” value is recorded as “failed to elongate, proliferate or form neovessels”. The nuclear architecture result in test [2] is “unaffected”. For the same compound, the “TUNEL staining with formation of multi-lobed nuclei” value in test [2] (3-D culture) is on record as “does not correlate with increased TUNEL staining”. Further, in test [2] (VEGF/HGF-stimulated), the nuclear shape entry was “locked endothelial cell nuclei into the multi-lobular conformation” and the “redistribution of nuclear pore complexes” value is “completely failed to redistribute”. In addition, in test [3], the “fibrillarin or SC-35 distribution” value is reported as “did not affect”; the “patterns of fibrillarin and SC-35 staining” value was “reversed to that resembling unstimulated endothelial cells”. Further, in test [4], the transcriptional activity result is “unaffected”; the “VEGF/HGF induction of transcriptional activity (RNA synthesis)” value was “attenuated significantly”; the “mRNA and rRNA synthesis inhibited” value is on record as ~50%.

Source of the values: US8697081B2, “Method of modulating neovascularization” (The Regents of the University of Michigan, priority 2008, dated 2014).
